Structures can show the parent of a compound that is named as a salt. Where two headings read alike, the source gives them in different places.

Assay in all cases: AK assay 384-well format, Prestwick library screening
In test [1] the test system is E. faecium. The test is classed as cell-based, Enterococcus faecium. The following applies: Enterococcus faecium, 3 h, 50 μM final drug concentration.
Test [2] concerns S. aureus strain USA300-0114. The test is classed as cell-based, Staphylococcus aureus. The following applies: Staphylococcus aureus, USA300, 3 h, 50 μM final drug concentration.
Test [3] has as its system K. pneumoniae. The class given is cell-based, Klebsiella pneumoniae. The following applies: Klebsiella pneumoniae, 3 h, 50 μM final drug concentration.
Test [4] has as its system A. baumannii strain 98-37-09. The class given is cell-based, Acinetobacter baumannii. The note with it: Acinetobacter baumannii, 983709, 3 h, 50 μM final drug concentration.
In test [5] the test system is P. aeruginosa. The class given is cell-based, Pseudomonas aeruginosa. The following applies: Pseudomonas aeruginosa, 3 h, 50 μM final drug concentration.
The test system of test [6] is E. cloacae. The class given is cell-based, Enterobacter cloacae. The note with it: Enterobacter cloacae, 3 h, 50 μM final drug concentration.
Test [7] deals with E. coli. The class given is cell-based, Escherichia coli. The note with it: Escherichia coli, 3 h, 50 μM final drug concentration.
Where [8] appears, read: planktonic, cutoff for positive 3-fold increase, read-out: AK-based Prestwick Library Screening Results, E. faecium (fold increase in extracellular AK activity).
The mark [9] stands for this setting: planktonic, cutoff for positive 3-fold increase, read-out: AK-based Prestwick Library Screening Results, S. aureus (fold increase in extracellular AK activity).
The mark [10] stands for this setting: planktonic, cutoff for positive 3-fold increase, read-out: AK-based Prestwick Library Screening Results, K. pneumoniae (fold increase in extracellular AK activity).
[11] abbreviates: planktonic, cutoff for positive 3-fold increase, read-out: AK-based Prestwick Library Screening Results, A. baumannii (fold increase in extracellular AK activity).
[12] abbreviates: planktonic, cutoff for positive 3-fold increase, read-out: AK-based Prestwick Library Screening Results, P. aeruginosa (fold increase in extracellular AK activity).
[13] abbreviates: planktonic, cutoff for positive 3-fold increase, read-out: AK-based Prestwick Library Screening Results, E. cloacae (fold increase in extracellular AK activity).
Where [14] appears, read: planktonic, cutoff for positive 3-fold increase, read-out: AK-based Prestwick Library Screening Results, E. coli (fold increase in extracellular AK activity).
The mark [15] stands for this setting: cutoff for positive-scoring molecules 3-fold increase, read-out: AK-based Prestwick Library Screening Results, E. faecium (fold increase in extracellular AK activity).
Where [16] appears, read: cutoff for positive-scoring molecules 3-fold increase, read-out: AK-based Prestwick Library Screening Results, S. aureus (fold increase in extracellular AK activity).
The mark [17] stands for this setting: cutoff for positive-scoring molecules 3-fold increase, read-out: AK-based Prestwick Library Screening Results, K. pneumoniae (fold increase in extracellular AK activity).
Setting [18] is: cutoff for positive-scoring molecules 3-fold increase, read-out: AK-based Prestwick Library Screening Results, A. baumannii (fold increase in extracellular AK activity).
Setting [19] is: cutoff for positive-scoring molecules 3-fold increase, read-out: AK-based Prestwick Library Screening Results, P. aeruginosa (fold increase in extracellular AK activity).
The mark [20] stands for this setting: cutoff for positive-scoring molecules 3-fold increase, read-out: AK-based Prestwick Library Screening Results, E. cloacae (fold increase in extracellular AK activity).
Where [21] appears, read: cutoff for positive-scoring molecules 3-fold increase, read-out: AK-based Prestwick Library Screening Results, E. coli (fold increase in extracellular AK activity).

For the compound `CN(C)Cc1c[nH]c2ccccc12` [Gramine], the fold induction at 50 µM in test [1] (setting [8]) was determined as 1; in test [2] (setting [9]), 1.3; in test [3] (setting [10]), 1; in test [4] (setting [11]) it was 1.3; in test [5] (setting [12]), 1.1; in test [6] (setting [13]) it was 1.5. Further, in test [7] (setting [14]), the fold induction at 50 µM stood at 1.2.

For the compound `COc1ccc2c(c1)[nH]c1c(C)nccc12` [Harmine hydrochloride], the fold induction at 50 µM worked out at 1.1 in test [1] (planktonic, […], read-out: AK-based Prestwick Library Screening Results, E. faecium (fold increase in extracellular AK activity)); 0.9 in test [2] (planktonic, […], read-out: AK-based Prestwick Library Screening Results, S. aureus (fold increase in extracellular AK activity)); 0.7 in test [3] (planktonic, […], read-out: AK-based Prestwick Library Screening Results, K. pneumoniae (fold increase in extracellular AK activity)); 1 in test [4] (planktonic, […], read-out: AK-based Prestwick Library Screening Results, A. baumannii (fold increase in extracellular AK activity)); 1.2 in test [5] (planktonic, […], read-out: AK-based Prestwick Library Screening Results, P. aeruginosa (fold increase in extracellular AK activity)); 1.5 in test [6] (planktonic, […], read-out: AK-based Prestwick Library Screening Results, E. cloacae (fold increase in extracellular AK activity)). Also, the fold induction at 50 µM in test [7] (planktonic, […], read-out: AK-based Prestwick Library Screening Results, E. coli (fold increase in extracellular AK activity)) came to 1.1.

As to `c1ccc2[nH]c(-c3cscn3)nc2c1` [Tiabendazole], the fold induction at 50 µM in test [1] (setting [8]) was 0.5; in test [2] (setting [9]), 0.6; in test [3] (setting [10]), 0.4; in test [4] (setting [11]), 0.5; in test [5] (setting [12]), 0.6; in test [6] (setting [13]) it was 1.3. Also, in test [7] (setting [14]), the fold induction at 50 µM was 0.6.

In the case of `CC(C(=O)O)c1ccc(C(=O)c2cccs2)cc1` (centres unmarked) [Suprofen], the fold induction at 50 µM in test [1] (planktonic, cutoff for positive-scoring molecules 3-fold increase, read-out: AK-based Prestwick Library Screening Results, E. faecium (fold increase in extracellular AK activity)) worked out at 0.9; in test [2] (planktonic, cutoff for positive-scoring molecules 3-fold increase, read-out: AK-based Prestwick Library Screening Results, S. aureus (fold increase in extracellular AK activity)), 0.6; in test [3] (planktonic, cutoff for positive-scoring molecules 3-fold increase, read-out: AK-based Prestwick Library Screening Results, K. pneumoniae (fold increase in extracellular AK activity)), 0.7; in test [4] (planktonic, cutoff for positive-scoring molecules 3-fold increase, read-out: AK-based Prestwick Library Screening Results, A. baumannii (fold increase in extracellular AK activity)) it was 0.8; in test [5] (planktonic, cutoff for positive-scoring molecules 3-fold increase, read-out: AK-based Prestwick Library Screening Results, P. aeruginosa (fold increase in extracellular AK activity)) it was 0.7; in test [6] (planktonic, cutoff for positive-scoring molecules 3-fold increase, read-out: AK-based Prestwick Library Screening Results, E. cloacae (fold increase in extracellular AK activity)), 0.9. The fold induction at 50 µM in test [7] (planktonic, cutoff for positive-scoring molecules 3-fold increase, read-out: AK-based Prestwick Library Screening Results, E. coli (fold increase in extracellular AK activity)) worked out at 0.7.

In the case of `CN(C)CCOC(c1ccccc1)c1ccccc1` [Diphenhydramine hydrochloride], the fold induction at 50 µM in test [1] (planktonic E. faecium, 384-well, cutoff for positive-scoring molecules 3-fold increase, read-out: AK-based Prestwick Library Screening Results: E. faecium (increase in extracellular AK activity)) worked out at 0.9; in test [2] (planktonic S. aureus, 384-well, cutoff for positive-scoring molecules 3-fold increase, read-out: AK-based Prestwick Library Screening Results: S. aureus (increase in extracellular AK activity)), 1.1; in test [3] (planktonic K. pneumoniae, 384-well, cutoff for positive-scoring molecules 3-fold increase, read-out: AK-based Prestwick Library Screening Results: K. pneumoniae (increase in extracellular AK activity)) it was 1; in test [4] (planktonic A. baumannii, 384-well, cutoff for positive-scoring molecules 3-fold increase, read-out: AK-based Prestwick Library Screening Results: A. baumannii (increase in extracellular AK activity)) it was 1.3; in test [5] (planktonic P. aeruginosa, 384-well, cutoff for positive-scoring molecules 3-fold increase, read-out: AK-based Prestwick Library Screening Results: P. aeruginosa (increase in extracellular AK activity)), 1; in test [6] (planktonic E. cloacae, 384-well, cutoff for positive-scoring molecules 3-fold increase, read-out: AK-based Prestwick Library Screening Results: E. cloacae (increase in extracellular AK activity)) it was 1.4. The fold induction at 50 µM in test [7] (planktonic E. coli, 384-well, cutoff for positive-scoring molecules 3-fold increase, read-out: AK-based Prestwick Library Screening Results: E. coli (increase in extracellular AK activity)) was found to be 1.3.

For `O=C(NCNC(=O)NC1C(=O)NC(=O)N1CO)NC1C(=O)NC(=O)N1CO` (centres unmarked) [Imidurea], the fold induction at 50 µM in test [1] (planktonic E. faecium, […], read-out: AK-based Prestwick library screening result, E. faecium (fold increase in extracellular AK activity)) amounted to 0.9; in test [2] (planktonic S. aureus, […], read-out: AK-based Prestwick library screening result, S. aureus (fold increase in extracellular AK activity)), 0.7; in test [3] (planktonic K. pneumoniae, […], read-out: AK-based Prestwick library screening result, K. pneumoniae (fold increase in extracellular AK activity)), 0.7; in test [4] (planktonic A. baumannii, […], read-out: AK-based Prestwick library screening result, A. baumannii (fold increase in extracellular AK activity)) it was 0.8; in test [5] (planktonic P. aeruginosa, […], read-out: AK-based Prestwick library screening result, P. aeruginosa (fold increase in extracellular AK activity)) it was 0.8; in test [6] (planktonic E. cloacae, […], read-out: AK-based Prestwick library screening result, E. cloacae (fold increase in extracellular AK activity)) it was 1.2. For the same compound, the fold induction at 50 µM in test [7] (planktonic E. coli, […], read-out: AK-based Prestwick library screening result, E. coli (fold increase in extracellular AK activity)) was 0.9.

On to `CN(C)CCCC1(c2ccc(F)cc2)OCc2cc(C#N)ccc21` (centres unmarked) [Citalopram Hydrobromide], for which the fold induction at 50 µM in test [1] (setting [15]) stood at 1; in test [2] (setting [16]), 1; in test [3] (setting [17]), 0.9; in test [4] (setting [18]), 0.9; in test [5] (setting [19]), 1.2; in test [6] (setting [20]), 1.5. Further, the fold induction at 50 µM in test [7] (setting [21]) was 1.

Turning to `Cn1cnc2c1c(=O)[nH]c(=O)n2C` [Theobromine], the fold induction at 50 µM stood at 1.1 in test [1] (setting [15]); 1.3 in test [2] (setting [16]); 1.2 in test [3] (setting [17]); 1.1 in test [4] (setting [18]); 1.2 in test [5] (setting [19]); 1.4 in test [6] (setting [20]). Moreover, in test [7] (setting [21]), the fold induction at 50 µM came to 1.2.

The record behind these values is patent publication US10004701B2, “Methods and compositions for treating infection” (UNIVERSITY OF ROCHESTER, priority 2012, dated 2018).
